# pKi: −log10 of the molar value.
# Biological target: human orexin-2 receptor (Homo sapiens (Human), UniProt O43614)
# Assay: Human orexin 2 receptor radioligand binding ([3H]-EMPA competition)
# Conditions: HEK293 cells stably expressing human orexin-2 receptor; [3H]-EMPA 5 nM final; apparent Ki=IC50/(1+C/Kd), Kd=2 nM; read-out: OR 2 Ki
# human orexin-2 receptor, sequence (O43614 whole entry): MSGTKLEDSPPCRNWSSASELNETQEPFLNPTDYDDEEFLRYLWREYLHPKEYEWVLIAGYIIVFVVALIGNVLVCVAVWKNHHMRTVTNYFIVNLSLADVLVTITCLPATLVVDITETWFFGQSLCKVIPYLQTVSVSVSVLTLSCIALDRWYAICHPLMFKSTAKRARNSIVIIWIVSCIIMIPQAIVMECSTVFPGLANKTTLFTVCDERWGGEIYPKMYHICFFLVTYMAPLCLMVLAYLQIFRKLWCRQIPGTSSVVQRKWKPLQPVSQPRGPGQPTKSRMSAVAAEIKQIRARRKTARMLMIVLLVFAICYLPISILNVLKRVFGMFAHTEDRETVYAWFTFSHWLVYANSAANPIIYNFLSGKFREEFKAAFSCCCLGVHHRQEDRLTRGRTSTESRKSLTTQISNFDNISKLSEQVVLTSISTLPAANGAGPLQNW
row,pKi,Compound
1,6.32,"Cc1cc(C)nc(N2CC3CN(C(=O)c4ncoc4-c4ccccc4)CC3C2)n1 (centres unmarked) [Example 79, 2-(4,6-Dimethylpyrimidin-2-yl)-5-[(5-phenyl-1,3-oxazol-4-yl)carbonyl]octahydro-pyrrolo[3,4-c]pyrrole]"
2,6.39,"COc1ccc(C(=O)N2CC3CN(c4nccc(-c5ccccc5)n4)CC3C2)c(OC)c1 (centres unmarked) [Example 167, 2-[(2,4-Dimethoxyphenyl)carbonyl]-5-(4-phenylpyrimidin-2-yl)octahydropyrrolo[3,4-c]pyrrole]"
3,7.09,"O=C(c1ccccc1-n1nccn1)N1CC2CN(c3nccc(-c4cccs4)n3)CC2C1 (centres unmarked) [Example 143, 2-(4-Thiophen-2-ylpyrimidin-2-yl)-5-{[2-(2H-1,2,3-triazol-2-yl)phenyl]carbonyl}octahydropyrrolo[3,4-c]pyrrole]"
4,6.19,"COc1ccnc(N2CC3CN(C(=O)c4ccccc4-c4cccc(F)c4)CC3C2)n1 (centres unmarked) [Example 51, 2-[(3′-Fluorobiphenyl-2-yl)carbonyl]-5-(4-methoxypyrimidin-2-yl)octahydro-pyrrolo[3,4-c]pyrrole]"
5,7.82,"Cc1cc(N2CC3CN(C(=O)c4ccc(F)cc4-n4nccn4)CC3C2)nc(C(F)(F)F)n1 (centres unmarked) [Example 99, 2-{[4-Fluoro-2-(2H-1,2,3-triazol-2-yl)phenyl]carbonyl}-5-[6-methyl-2-(trifluoromethyl)pyrimidin-4-yl]octahydropyrrolo[3,4-c]pyrrole]"
6,8.00,"CCc1c(C)nc(N2CC3CN(C(=O)c4ccccc4-c4ncn(C)n4)CC3C2)nc1C (centres unmarked) [Example 322, 2-(5-Ethyl-4,6-dimethylpyrimidin-2-yl)-5-{[2-(1-methyl-1H-1,2,4-triazol-3-yl)phenyl]carbonyl}octahydropyrrolo[3,4-c]pyrrole]"

# Second part, the compound before the results:
row,Compound,pKi
1,"O=C(O)c1cnc(N2CC3CN(C(=O)c4c(F)cccc4-n4nccn4)CC3C2)nc1C(F)(F)F (centres unmarked) [Example 263, 2-(5-(2-Fluoro-6-(2H-1,2,3-triazol-2-yl)benzoyl)hexahydropyrrolo[3,4-c]pyrrol-2(1H)-yl)-4-(trifluoromethyl)pyrimidine-5-carboxylic acid]",5.00
2,"COc1c(C(=O)N2CC3CN(c4nc(C)cc(C)n4)CC3C2)ccc2ccccc12 (centres unmarked) [Example 340, [5-(4,6-Dimethyl-pyrimidin-2-yl)-hexahydro-pyrrolo[3,4-c]pyrrol-2-yl]-(1-methoxy-naphthalen-2-yl)-methanone]",5.82
3,"COc1cc2ccccc2cc1C(=O)N1CC2CN(c3nc(C)cc(C)n3)CC2C1 (centres unmarked) [Example 338, [5-(4,6-Dimethyl-pyrimidin-2-yl)-hexahydro-pyrrolo[3,4-c]pyrrol-2-yl]-(3-methoxy-naphthalen-2-yl)-methanone]",5.79
4,"COc1ccc2nc(N3CC4CN(C(=O)c5ccccc5-c5ccccc5)CC4C3)sc2c1 (centres unmarked) [Example 187, Biphenyl-2-yl-[5-(6-methoxy-benzothiazol-2-yl)-hexahydro-pyrrolo[3,4-c]pyrrol-2-yl]-methanone]",5.64
5,"CCc1c(C)nc(N2CC3CN(C(=O)c4ncccc4-n4nccn4)CC3C2)nc1C (centres unmarked) [Example 385, 2-(5-Ethyl-4,6-dimethylpyrimidin-2-yl)-5-{[3-(2H-1,2,3-triazol-2-yl)pyridin-2-yl]carbonyl}octahydropyrrolo[3,4-c]pyrrole]",7.38
6,"COc1ccc(C(=O)N2CC3CN(c4nc5ccccc5s4)CC3C2)c(OC)c1 (centres unmarked) [Example 17, 2-{5-[(2,4-Dimethoxyphenyl)carbonyl]hexahydropyrrolo[3,4-c]pyrrol-2(1H)-yl}-1,3-benzothiazole]",6.14
7,"Cc1nc(N2CC3CN(C(=O)c4cccc(F)c4-c4ncccn4)CC3C2)nc(C)c1C (centres unmarked) [Example 239, (3-Fluoro-2-(pyrimidin-2-yl)phenyl)(5-(4,5,6-trimethylpyrimidin-2-yl)hexahydropyrrolo[3,4-c]pyrrol-2(1H)-yl)methanone]",8.15
8,"Cc1ccc(-c2ccc(F)cc2C(=O)N2CC3CN(c4nc(C)cc(C)n4)CC3C2)nc1 (centres unmarked) [Example 401, (5-(4,6-Dimethylpyrimidin-2-yl)hexahydropyrrolo[3,4-c]pyrrol-2(1H)-yl)(5-fluoro-2-(5-methylpyridin-2-yl)phenyl)methanone]",6.08
